Each block holds one compound with its values, some of them ahead of it.
What was measured:
[1] = test system: melanoma A375 tumor cell line; assay: MTT reduction assay, A375 melanoma cells; assay type: cell-based, human; details: for effect on A375 cell viability: 72 h of exposure; for IC50: MTT, 72 h
Protocol: (§1) The cytotoxic activity was measured against the melanoma A375 tumor cell line (ECACC) and the human BJ fibroblast cell line (ATCC) using an MTT reduction assay. The selectivity index (SI) was calculated using the following formula: SI = IC50 (BJ)/ IC50 (A375).
The A375 cell line was purchased from the European Collection of Authenticated Cell Cultures (ECACC, Salisbury, UK) and the BJ human fibroblast cell line from the American Type Culture Collection (ATCC, Manassas, VA, USA). All the cell lines were grown as a monolayer in standard conditions: 37 °C, 100% humidity, under an atmosphere of 5% CO2. […] The BJ cell line was grown in EMEM with EBSS, NEAA and sodium pyruvate with L-Glutamine supplemented, 10% fetal bovine serum and 50 IU/mL penicillin/streptomycin.
(§2) Next, the cells were seeded in 96-well plates at a density of 5000 cells per well and incubated overnight to reach the logarithmic growth phase. […] After 72 h, 10 µL of MTT solution (5 g/L) was added into each well and incubated for an additional four hours. Subsequently, the medium was removed, and 100 µL of dimethyl sulfoxide (DMSO) was added into each well. The absorbance was then measured at 570 nm using a SPECTROstar Nano microplate reader (BMG Biotech Inc., Cary, NC, USA)/Tecan Spark 10M. The mean value from three independent BJ and A375 cell cultures was taken to calculate the cell viability, expressed as a percentage of the control values, i.e., untreated cells assumed as 100%.

[2] = test system: human BJ fibroblast cell line; assay: MTT reduction assay, BJ fibroblasts; assay type: cell-based; details: 72 h
Protocol: as §1
The A375 cell line was purchased from the European Collection of Authenticated Cell Cultures (ECACC, Salisbury, UK) and the BJ human fibroblast cell line from the American Type Culture Collection (ATCC, Manassas, VA, USA). All the cell lines were grown as a monolayer in standard conditions: 37 °C, 100% humidity, under an atmosphere of 5% CO2. The A375 cells were cultured in Dulbecco’s Modified Eagle Medium supplemented with 15% fetal calf serum and 50 IU/mL penicillin/streptomycin. The BJ cell line was grown in EMEM with EBSS, NEAA and sodium pyruvate with L-Glutamine supplemented, 10% fetal bovine serum and 50 IU/mL penicillin/streptomycin.
as §2

[3] = test system: clot formation and fibrinolysis in human citrate plasma; assay: Clot formation and fibrinolysis test (CL-test); details: for CLAUC overall potential for clot formation and fibrinolysis / Fmax maximum clotting / Fvo initial plasma clotting velocity / Lmax maximum lysis / Lvo initial clot fibrinolysis velocity / Sc area under the curve of stable clot formation / Sf area under the fibrinolysis curve / Sr area under the clot formation curve / Tc clot stabilization time / Tf plasma clotting time / Tl fibrinolysis time / Tt thrombin time: mean, n = 3
Protocol: Following this, the impact of the tested complex compounds and their ligands on the overall clot formation and fibrinolysis potential (CLAUC) and individual kinetic parameters was assessed using the CL-test. The analysis was performed using plasma from three different donors.
The blood samples used were residual materials from routine diagnostic studies, destined for disposal as medical waste. […] Platelet-poor plasma (PPP) and red blood cells were obtained using centrifugation at 3000× g for 10 min at room temperature using a Mikro 22R centrifuge (Hettich Zentrifugen, Tuttlingen, Germany). The plasma was used for the hemostasis tests. Before use, the centrifuged erythrocyte mass was washed three times with physiological saline solution to remove the plasma protein residues and other blood cells.
The influence of the compounds on the overall hemostasis potential was determined using the CL-test through continuous measurement of changes in optical transmittance, as described previously [53, 54]. The experiments were conducted using three-fold diluted human citrate plasma, t-PA and thrombin. […] The results are presented as means ± SD (n = 3). The curves were used to determine the kinetic parameters of clot formation, stabilization and fibrinolysis using dedicated software [51]. The following parameters of clot formation were determined: Tt—thrombin time (s), Fmax—maximum clotting (%T), Tf—plasma clotting time (s), Fvo—initial plasma clotting velocity (%T/min), Sr—area under the clot formation curve (%Txmin). The parameters of the clot stabilization phase comprised Tc—clot stabilization time (s) and Sc—area under the curve of stable clot formation (%Txmin). The parameters of fibrinolysis comprised Lmax—maximum lysis (%T), Tl—fibrinolysis time (s), Lvo—initial clot fibrinolysis velocity (%T/min) and Sf—area under the fibrinolysis curve (%Txmin). Additionally, the overall potential for clot formation and fibrinolysis, i.e., CLAUC (%Txmin), was also estimated.

[4] = test system: extrinsic coagulation pathway; assay: Prothrombin time (PT) and INR in human citrated plasma; details: up to 100 µmol/L; reference PT 9.7–14.6 s, INR 0.8–1.2
Protocol: The first stage assessed the changes in plasma hemostasis occurring under the influence of the five test compounds. Plasma was incubated with the tested compounds and ligands at six different concentrations ranging from 0.5 to 100 µmol/L. The plasma was obtained from five different volunteers. To evaluate the impact on the extrinsic coagulation pathway, the prothrombin time (PT) was determined in human citrated plasma, expressed in seconds and as the international normalized ratio (INR) (Figure 6 and Figure 7).
The plasma was used for the hemostasis tests.
The results are presented as means ± standard deviation (SD).

Compound: N.N.[Cl][Pt][Cl] [Cisplatin, cisplatin]
effect on A375 cell viability [1]: dose-dependent cytotoxic effect
IC50 [1]: 8.5 ± 0.3 µM
IC50 [2]: 24 ± 0.8 µM

Compound: Clc1ccc(COC(Cn2ccnc2)c2ccc(Cl)cc2Cl)c(Cl)c1 (stereo not drawn) [MCZ, miconazole]
effect on A375 cell viability [1]: dose-dependent reduction

IC50 ([1]; Homo sapiens, A-375): > 100 µM
effect on CLAUC and kinetic parameters of clot formation and lysis ([3]; entire concentration range 0.5–100 µmol/L): no significant differences
Compound: Cc1ncc([N+](=O)[O-])n1CCO [MTZ, metronidazole]
IC50 ([2]; Homo sapiens, Fibroblast): > 100 µM

Compound: Cc1ncc([N+](=O)[O-])n1CCO.Cc1ncc([N+](=O)[O-])n1CCO.O=[N+]([O-])[O-].[Ag+] [[(MTZ)2AgNO3]]
prolongation of PT and INR beyond the reference range [4]: do not cause pathological prolongation
IC50 [1]: 3 ± 0.3 µM
IC50 [2]: 46 ± 1.6 µM
CLAUC overall potential for clot formation and fibrinolysis ([3]; 0.5 µmol/L): 287.9 %*min
Fmax maximum clotting ([3]; 0.5 µmol/L): 64.4%
Fvo initial plasma clotting velocity ([3]; 0.5 µmol/L): 126.7 %/min
Lmax maximum lysis ([3]; 0.5 µmol/L): 61.9%
Lvo initial clot fibrinolysis velocity ([3]; 0.5 µmol/L): 20.9 %/min
Sc area under the curve of stable clot formation ([3]; 0.5 µmol/L): 118.4 %*min
Sf area under the fibrinolysis curve ([3]; 0.5 µmol/L): 125.5 %*min
Sr area under the clot formation curve ([3]; 0.5 µmol/L): 44.1 %*min
Tc clot stabilization time ([3]; 0.5 µmol/L): 114.3 s
Tf plasma clotting time ([3]; 0.5 µmol/L): 61.9 s
Tl fibrinolysis time ([3]; 0.5 µmol/L): 158.7 s
Tt thrombin time ([3]; 0.5 µmol/L): 21.3 s
CLAUC overall potential for clot formation and fibrinolysis ([3]; 1.0 µmol/L): 275.7 %*min
Fmax maximum clotting ([3]; 1.0 µmol/L): 62.2%
Fvo initial plasma clotting velocity ([3]; 1.0 µmol/L): 126.3 %/min
Lmax maximum lysis ([3]; 1.0 µmol/L): 61.5%
Lvo initial clot fibrinolysis velocity ([3]; 1.0 µmol/L): 19.5 %/min
Sc area under the curve of stable clot formation ([3]; 1.0 µmol/L): 125.5 %*min
Sf area under the fibrinolysis curve ([3]; 1.0 µmol/L): 105.1 %*min
Sr area under the clot formation curve ([3]; 1.0 µmol/L): 45.1 %*min
Tc clot stabilization time ([3]; 1.0 µmol/L): 124.7 s
Tf plasma clotting time ([3]; 1.0 µmol/L): 65.9 s
Tl fibrinolysis time ([3]; 1.0 µmol/L): 175.0 s
Tt thrombin time ([3]; 1.0 µmol/L): 21.6 s
CLAUC overall potential for clot formation and fibrinolysis ([3]; 5.0 µmol/L): 343.6 %*min
Fmax maximum clotting ([3]; 5.0 µmol/L): 70.7%
Fvo initial plasma clotting velocity ([3]; 5.0 µmol/L): 157.7 %/min
Lmax maximum lysis ([3]; 5.0 µmol/L): 70.5%
Lvo initial clot fibrinolysis velocity ([3]; 5.0 µmol/L): 21.9 %/min
Sc area under the curve of stable clot formation ([3]; 5.0 µmol/L): 169.8 %*min
Sf area under the fibrinolysis curve ([3]; 5.0 µmol/L): 129.1 %*min
Sr area under the clot formation curve ([3]; 5.0 µmol/L): 44.7 %*min
Tc clot stabilization time ([3]; 5.0 µmol/L): 146.7 s
Tf plasma clotting time ([3]; 5.0 µmol/L): 59.4 s
Tl fibrinolysis time ([3]; 5.0 µmol/L): 199.0 s
Tt thrombin time ([3]; 5.0 µmol/L): 19.2 s
CLAUC overall potential for clot formation and fibrinolysis ([3]; 10.0 µmol/L): 284.4 %*min
Fmax maximum clotting ([3]; 10.0 µmol/L): 61.4%
Fvo initial plasma clotting velocity ([3]; 10.0 µmol/L): 121.6 %/min
Lmax maximum lysis ([3]; 10.0 µmol/L): 60.2%
Lvo initial clot fibrinolysis velocity ([3]; 10.0 µmol/L): 19.5 %/min
Sc area under the curve of stable clot formation ([3]; 10.0 µmol/L): 126.7 %*min
Sf area under the fibrinolysis curve ([3]; 10.0 µmol/L): 117.2 %*min
Sr area under the clot formation curve ([3]; 10.0 µmol/L): 40.5 %*min
Tc clot stabilization time ([3]; 10.0 µmol/L): 126.7 s
Tf plasma clotting time ([3]; 10.0 µmol/L): 62.3 s
Tl fibrinolysis time ([3]; 10.0 µmol/L): 180.3 s
Tt thrombin time ([3]; 10.0 µmol/L): 23.3 s
CLAUC overall potential for clot formation and fibrinolysis ([3]; 50.0 µmol/L): 280.7 %*min
Fmax maximum clotting ([3]; 50.0 µmol/L): 63.8%
Fvo initial plasma clotting velocity ([3]; 50.0 µmol/L): 129.0 %/min
Lmax maximum lysis ([3]; 50.0 µmol/L): 61.8%
Lvo initial clot fibrinolysis velocity ([3]; 50.0 µmol/L): 22.0 %/min
Sc area under the curve of stable clot formation ([3]; 50.0 µmol/L): 123.25 %*min
Sf area under the fibrinolysis curve ([3]; 50.0 µmol/L): 118.6 %*min
Sr area under the clot formation curve ([3]; 50.0 µmol/L): 38.9 %*min
Tc clot stabilization time ([3]; 50.0 µmol/L): 119.3 s
Tf plasma clotting time ([3]; 50.0 µmol/L): 56.9 s
Tl fibrinolysis time ([3]; 50.0 µmol/L): 164.7 s
Tt thrombin time ([3]; 50.0 µmol/L): 22.5 s
CLAUC overall potential for clot formation and fibrinolysis ([3]; 100.0 µmol/L): 318.6 %*min
Fmax maximum clotting ([3]; 100.0 µmol/L): 68.6%
Fvo initial plasma clotting velocity ([3]; 100.0 µmol/L): 124.9 %/min
Lmax maximum lysis ([3]; 100.0 µmol/L): 67.2%
Lvo initial clot fibrinolysis velocity ([3]; 100.0 µmol/L): 29.6 %/min
Sc area under the curve of stable clot formation ([3]; 100.0 µmol/L): 146.3 %*min
Sf area under the fibrinolysis curve ([3]; 100.0 µmol/L): 131.8 %*min
Sr area under the clot formation curve ([3]; 100.0 µmol/L): 40.4 %*min
Tc clot stabilization time ([3]; 100.0 µmol/L): 131.3 s
Tf plasma clotting time ([3]; 100.0 µmol/L): 59.2 s
Tl fibrinolysis time ([3]; 100.0 µmol/L): 188.7 s
Tt thrombin time ([3]; 100.0 µmol/L): 22.4 s

IC50 [1]: 18.5 ± 2.4 µM
Compound: Clc1ccc(COC(Cn2ccnc2)c2ccc(Cl)cc2Cl)c(Cl)c1.Clc1ccc(COC(Cn2ccnc2)c2ccc(Cl)cc2Cl)c(Cl)c1.[Ag+].[F][Sb-]([F])([F])([F])([F])[F] (stereo not drawn) [[Ag(MCZ)2SbF6]]
IC50 [2]: 16 ± 0.9 µM

From paper PMC11121064 (International Journal of Molecular Sciences, 2024)
